# Measurements from ChEMBL document CHEMBL4680265, “Anti-tubulin agent vinorelbine inhibits metastasis of cancer cells by regulating epithelial-mesenchymal transition” (Eur J Med Chem, 2020).
# Active and inactive are the calls of the source. The calls are words filed in the database; no cut-off is given here.
# What was measured:
# HepG2 [1] = test: Inhibition of epithelial-mesenchymal transition in human HepG2 cells assessed as downregulation of Snail-1 by Western blot analysis; assay type: functional, cell-based; conditions: dose 0.1-10 µM
# NCI-H1975 [2] = test: Cytotoxicity against human NCI-H1975 cells assessed as reduction in cell viability incubated for 48 hrs by MTT assay; assay type: functional, cell-based; conditions: NCI-H1975, 48 h
# NCI-H1975 [3] = test: Inhibition of epithelial-mesenchymal transition in human NCI-H1975 cells assessed as downregulation of Snail-1 by Western blot analysis; assay type: functional, cell-based; conditions: dose 1-100 nM
# HCT-116 [4] = test: Antimigratory activity against human HCT-116 cells assessed as reduction in migration at 1 nM measured after 96 hrs by scratch wound healing based inverted microscopic analysis relative to control; assay type: functional
# HepG2 [5] = test: Induction of apoptosis in human HepG2 cells assessed as increase in late apoptotic cells at 0.1 to 10 uM incubated for 48 hrs by annexin V-FITC and PI staining based flow cytometry analysis; assay type: functional, cell-based; conditions: dose 0.1-10 µM
# HepG2 [6] = test: Induction of apoptosis in human HepG2 cells assessed as decrease in Bcl-xl expression at 0.1 to 10 uM incubated for 48 hrs by Western blot analysis; assay type: functional, cell-based; conditions: dose 0.1-10 µM
# NCI-H1975 [7] = test: Induction of cell cycle arrest in human NCI-H1975 cells assessed as increase in G2/M phase accumulation at 100 nM incubated for 24 hrs by propidium iodide staining based flow cytometry analysis relative to control; assay type: functional
# HCT-116 [8] = test: Inhibition of epithelial-mesenchymal transition in human HCT-116 cells assessed as downregulation of Snail-1 by Western blot analysis; assay type: functional, cell-based; conditions: dose 0.01-1 µM
# NCI-H1975 [9] = test: Induction of cell cycle arrest in human NCI-H1975 cells assessed as increase in G2/M phase accumulation at 1 nM incubated for 24 hrs by propidium iodide staining based flow cytometry analysis relative to control; assay type: functional
# HCT-116 [10] = test: Induction of apoptosis in human HCT-116 cells assessed as decrease in Bcl-2 expression at 0.01 to 1 uM incubated for 48 hrs by Western blot analysis; assay type: functional, cell-based; conditions: dose 0.01-1 µM
# NCI-H1975 [11] = test: Antiinvasive activity against human NCI-H1975 cells assessed as reduction in invasion at 1 to 10 nM measured after 48 hrs by DAPI staining based transwell assay; assay type: functional, cell-based; conditions: dose 1-10 nM
# NCI-H1975 [12] = test: Inhibition of epithelial-mesenchymal transition in human NCI-H1975 cells assessed as decrease in N-cadherin expression at 1 to 100 nM by Western blot analysis; assay type: functional, cell-based; conditions: dose 1-100 nM
# HCT-116 [13] = test: Induction of apoptosis in human HCT-116 cells assessed as increase in Bax expression at 0.01 to 1 uM incubated for 48 hrs by Western blot analysis; assay type: functional, cell-based; conditions: dose 0.01-1 µM
# HCT-116 [14] = test: Inhibition of colony formation in human HCT-116 cells at 0.01 to 1 uM incubated for 3 to 4 days by crystal violet staining based assay; assay type: functional, cell-based; conditions: dose 0.01-1 µM, time 3-4 day
# HCT-116 [15] = test: Induction of apoptosis in human HCT-116 cells assessed as increase in late apoptotic cells at 0.01 to 1 uM incubated for 48 hrs by annexin V-FITC and PI staining based flow cytometry analysis; assay type: functional, cell-based; conditions: dose 0.01-1 µM
# HCT-116 [16] = test: Cytotoxicity against human HCT-116 cells assessed as effect on cell morphology incubated for 48 hrs by DAPI staining based fluorescence microscopy; assay type: functional; conditions: dose 0.01-1 µM
# HepG2 [17] = test: Induction of apoptosis in human HepG2 cells assessed as increase in Bax expression at 0.1 to 10 uM incubated for 48 hrs by Western blot analysis; assay type: functional, cell-based; conditions: dose 0.1-10 µM
# HepG2 [18] = test: Induction of apoptosis in human HepG2 cells assessed as decrease in Bcl-2 expression at 0.1 to 10 uM incubated for 48 hrs by Western blot analysis; assay type: functional, cell-based; conditions: dose 0.1-10 µM
# NCI-H1975 [19] = test: Cytotoxicity against human NCI-H1975 cells assessed as effect on cell morphology incubated for 48 hrs by DAPI staining based fluorescence microscopy; assay type: functional; conditions: dose 1-100 nM
# NCI-H1975 [20] = test: Inhibition of epithelial-mesenchymal transition in human NCI-H1975 cells assessed as increase in E-cadherin expression at 1 to 100 nM by Western blot analysis; assay type: functional, cell-based; conditions: dose 1-100 nM
# NCI-H1975 [21] = test: Induction of apoptosis in human NCI-H1975 cells assessed as decrease in Bcl-2 expression at 1 to 100 nM incubated for 48 hrs by Western blot analysis; assay type: functional, cell-based; conditions: dose 1-100 nM
# NCI-H1975 [22] = test: Induction of apoptosis in human NCI-H1975 cells assessed as increase in early apoptotic cells at 1 to 100 nM incubated for 48 hrs by annexin V-FITC and PI staining based flow cytometry analysis; assay type: functional, cell-based; conditions: dose 1-100 nM
# NCI-H1975 [23] = test: Antimigratory activity against human NCI-H1975 cells assessed as reduction in migration at 10 nM measured after 96 hrs by scratch wound healing based inverted microscopic analysis relative to control; assay type: functional
# HepG2 [24] = test: Cytotoxicity against human HepG2 cells assessed as effect on cell morphology incubated for 48 hrs by DAPI staining based fluorescence microscopy; assay type: functional; conditions: dose 0.1-10 µM
# HCT-116 [25] = test: Inhibition of epithelial-mesenchymal transition in human HCT-116 cells assessed as downregulation of MMP-9 by Western blot analysis; assay type: functional, cell-based; conditions: dose 0.01-1 µM
# NCI-H1975 [26] = test: Inhibition of colony formation in human NCI-H1975 cells at 1 to 100 nM incubated for 3 to 4 days by crystal violet staining based assay; assay type: functional, cell-based; conditions: dose 1-100 nM, time 3-4 day
# NCI-H1975 [27] = test: Antimigratory activity against human NCI-H1975 cells assessed as reduction in migration at 1 nM measured after 96 hrs by scratch wound healing based inverted microscopic analysis relative to control; assay type: functional
# HCT-116 [28] = test: Inhibition of epithelial-mesenchymal transition in human HCT-116 cells assessed as decrease in Vimentin expression at 0.01 to 1 uM by Western blot analysis; assay type: functional, cell-based; conditions: dose 0.01-1 µM
# NCI-H1975 [29] = test: Induction of apoptosis in human NCI-H1975 cells assessed as increase in Bax expression at 1 to 100 nM incubated for 48 hrs by Western blot analysis; assay type: functional, cell-based; conditions: dose 1-100 nM
# HepG2 [30] = test: Antimigratory activity against human HepG2 cells assessed as reduction in migration at 0.1 nM measured after 96 hrs by scratch wound healing based inverted microscopic analysis relative to control; assay type: functional
smiles,measurement,setting,value
CCC1=C[C@@H]2CN(C1)Cc1c([nH]c3ccccc13)[C@@](C(=O)OC)(c1cc3c(cc1OC)N(C)[C@H]1[C@@](O)(C(=O)OC)[C@H](OC(C)=O)[C@]4(CC)C=CCN5CC[C@]31[C@@H]54)C2 [VINORELBINE],inhibition,HepG2 [1],Dose-dependent effect
same,IC50,NCI-H1975 [2],8 nM
same,inhibition,NCI-H1975 [3],Dose-dependent effect
same,inhibition at 0.001 µM,HCT-116 [4],13%
same,Activity,HepG2 [5],Active
same,Activity,HepG2 [6],Active
same,Activity,NCI-H1975 [7],51.85%
same,inhibition,HCT-116 [8],Dose-dependent effect
same,Activity,NCI-H1975 [9],17.39%
same,Activity,HCT-116 [10],Active
same,inhibition,NCI-H1975 [11],Active
same,inhibition,NCI-H1975 [12],Active
same,Activity,HCT-116 [13],Active
same,inhibition,HCT-116 [14],Active
same,Activity,HCT-116 [15],Active
same,Activity,HCT-116 [16],Dose-dependent effect
same,Activity,HepG2 [17],Active
same,Activity,HepG2 [18],Active
same,Activity,NCI-H1975 [19],Dose-dependent effect
same,inhibition,NCI-H1975 [20],Active
same,Activity,NCI-H1975 [21],Active
same,Activity,NCI-H1975 [22],Active
same,inhibition at 0.01 µM,NCI-H1975 [23],70.5%
same,Activity,HepG2 [24],Dose-dependent effect
same,inhibition,HCT-116 [25],Dose-dependent effect
same,inhibition,NCI-H1975 [26],Active
same,inhibition at 0.001 µM,NCI-H1975 [27],0.7%
same,inhibition,HCT-116 [28],inactive
same,Activity,NCI-H1975 [29],Active
same,inhibition at 0.0001 µM,HepG2 [30],11.7%
